Measured values published in patent publication US10179125B2, “Substituted pyridines as bromodomain inhibitors” (Zenith Epigenetics Ltd., priority 2014, dated 2019).

Assays:
[1] = molecular target: T1, Brd4 bromodomain 1 (BRD4(1)) (Homo sapiens, UniProt O60885); assay: Inhibition of tetra-acetylated histone H4 binding to BET bromodomain (HTRF/FRET); details: His-tagged bromodomain 200 nM, biotinylated tetra-acetylated histone H4 peptide, 2 h room temperature
T1 construct: made in house; host or cells: E. coli BL21(DE3)
Procedure: Proteins were cloned and overexpressed with a N-terminal 6×His tag, then purified by nickel affinity followed by size exclusion chromatography. Briefly, E. coli BL21(DE3) cells were transformed with a recombinant expression vector encoding N-terminally Nickel affinity tagged bromodomains from Brd2, Brd3, Brd4. Cell cultures were incubated at 37° C. with shaking to the appropriate density and induced overnight with IPTG. The supernatant of lysed cells was loaded onto Ni-IDA column for purification, Eluted protein was pooled, concentrated and further purified by size exclusion chromatography. Fractions representing monomeric protein were pooled, concentrated, aliquoted, and frozen at −80° C. for use in subsequent experiments.
Binding of tetra-acetylated histone H4 and BET bromodomains was confirmed by a Homogenous Time Resolved Fluorescence Resonance Energy Transfer (HTRF®) method, N-terminally His-tagged bromodomains (200 nM) and biotinylated tetra-acetylated histone H4 peptide (25-50 nM, Millipore) were incubated in the presence of Europium Cryptate-labeled streptavidin (Cisbio Cat, #610SAKLB) and XL665-labeled monoclonal anti-His antibody (Cisbio Cat.1461HISXLB) in a white 96 well microtiter plate (Greiner). For inhibition assays, serially diluted test compound was added to these reactions in a 0.2% final concentration of DMSO. Duplicate wells were used for each concentration tested. Final buffer concentrations were 30 mM HEPES pH 7.4, 30 mM NaCl, 0.3 mM CHAPS, 20 mM phosphate pH 7.0, 320 mM KF, 0.08% BSA. After a 2 h incubation at room temperature, fluorescence was measured at 665 and 620 nm with a SynergyH4 plate reader (Biotek). The binding inhibitory activity was shown by a decrease in […] relative to 620 nm fluorescence. IC50 values were determined from a dose response curve.

[2] = tested on: cMYC; assay: Inhibition of cMYC expression in MV4-11 cells (real-time PCR); format: cell-based, Human; details: Homo sapiens, 3 h, cMYC mRNA, read-out: c-myc activity
Procedure: MV4-11 cells (CRL-9591) were plated at a density of 2.5×10^4 cells per well in 96 well U-bottom plates and treated with increasing concentrations of test compound or DMSO (0.1%) in IMDM media containing 10% FBS and penicillin/streptomycin, and incubated for 3 h at 37° C. Triplicate wells were used for each concentration. Cells were pelleted by centrifugation and harvested using the mRNA Catcher PLUS kit according to manufacturer's instructions. The eluted mRNA isolated was then used in a one-step quantitative real-time PCR reaction, using components of the RNA UltraSense™ One-Step Kit (Life Technologies) together with Applied Biosystems TaqMan® primer-probes for cMYC and Cyclophilin, Real-time PCR plates were run on a ViiA™7 real time PCR machine (Applied Biosystems), data was analyzed, normalizing the Ct values for cMYC to an internal control, prior to determining the fold expression of each sample, relative to the control.

[3] = tested on: Human AML MV-4-11 cells; assay: Inhibition of cell proliferation in MV4-11 cells (CellTiter Aqueous One); format: cell-based; details: 72 h; for IC50: Homo sapiens
Procedure: MV4-11 cells (CRL-9591) were plated at a density of 5×10^4 cells per well in 96 well flat bottom plates and treated with increasing concentrations of test compound or DMSO (0.1%) in IMDM media containing 10% FBS and penicillin/streptomycin. Triplicate wells were used for each concentration and a well containing only media was used as a control. Plates were incubated at 37° C., 5% CO2 for 72 h before adding 20 μL of the CellTiter Aqueous One Solution (Promega) to each well and incubated at 37° C., 5% CO2 for an additional 3-4 h. The absorbance was read at 490 nm in a spectrophotometer and the percentage of cell titer relative to DMSO-treated cells was calculated after correcting for background by subtracting the blank well's signal. IC50 values were calculated using the GraphPad Prism software.

[4] = tested on: hIL-6; assay: Inhibition of hIL-6 mRNA transcription in LPS-stimulated U937 cells; format: cell-based, Human; details: 1 h pretreatment, LPS 3 h; for IC50: Homo sapiens, U-937, PMA-differentiated U937 cells, read-out: IL-6 activity
Procedure: Human leukemic monocyte lymphoma U937 cells (CRL-1593.2) were plated at a density of 3.2×10^4 cells per well in a 96-well plate in 100 μL RPMI-1640 containing 10% FBS and penicillin/streptomycin, and differentiated into macrophages for 3 days in 60 ng/mL PMA ([…]) at 37° C. in 5% CO2 prior to the addition of compound. The cells were pretreated for 1 h with increasing concentrations of test compound in 0.1% DMSO prior to stimulation with 1 ug/mL lipopolysaccharide from Escherichia coli. Triplicate wells were used for each concentration. The cells were incubated at 37° C., 5% CO2 for 3 h before the cells were harvested. At time of harvest, media was removed and cells were rinsed in 200 μL PBS. Cells were harvested using the mRNA Catcher PLUS kit according to manufacturer's instructions. The eluted mRNA was then used in a one-step quantitative real-time PCR reaction using components of the RNA UltraSense™ One-Step Kit (Life Technologies) together with Applied Biosystems TaqMan® primer-probes for hIL-6 and Cyclophilin. Real-time PCR plates were run on a ViiA™7 real time PCR machine (Applied Biosystems), data was analyzed, normalizing the Ct values for hIL-6 to an internal control, prior to determining the fold expression of each sample, relative to the control.

Row | Structure (SMILES) | IC50 [1] [µM] | IC50 [2] [µM] | IC50 [3] [µM] | IC50 [4] [µM] | IL-6 activity ([4]; PMA-differentiated U937 cells) | Cell Proliferation activity [3]
1 | COc1ncc(-c2c(C)noc2C)cc1-c1c(C)noc1C [Example 34, 4,4′-(2-methoxypyridine-3,5-diyl)bis(3,5-dimethylisoxazole)] | ≤ 0.3 | 3 to 30 | – | 3 to 30 | – | –
2 | COc1ncc(-c2c(C)noc2C)cc1Nc1ccc(C#N)cc1 [Example 35, 4-((5-(3,5-dimethylisoxazol-4-yl)-2-methoxypyridin-3-yl)amino)benzonitrile] | ≤ 0.3 | 3 to 30 | 3 to 30 | 0.3 to 3 | – | –
3 | COc1ncc(-c2c(C)noc2C)cc1NCc1ccccn1 [Example 21, 5-(3,5-dimethylisoxazol-4-yl)-2-methoxy-N-(pyridin-2-ylmethyl)pyridin-3-amine] | ≤ 0.3 | 0.3 to 3 | 0.3 to 3 | 0.3 to 3 | – | –
4 | COc1ncc(-c2c(C)noc2C)cc1NCc1ccc2ccccc2c1 [Example 44, 5-(3,5-dimethylisoxazol-4-yl)-2-methoxy-N-(naphthalen-2-ylmethyl)pyridin-3-amine] | ≤ 0.3 | 3 to 30 | 3 to 30 | 3 to 30 | – | –
5 | COc1ncc(-c2c(C)noc2C)cc1NCc1ccc(C(F)(F)F)cc1 [Example 16, 5-(3,5-dimethylisoxazol-4-yl)-2-methoxy-N-(4-(trifluoromethyl)benzyl)pyridin-3-amine] | 0.3 to 3 | – | – | – | – | –
6 | COc1ncc(-c2c(C)noc2C)cc1NCc1nccs1 [Example 41, 5-(3,5-dimethylisoxazol-4-yl)-2-methoxy-N-(thiazol-2-ylmethyl)pyridin-3-amine] | ≤ 0.3 | ≤ 0.3 | 0.3 to 3 | 0.3 to 3 | – | –
7 | COc1ncc(-c2c(C)noc2C)cc1Oc1ccccc1 [Example 4, 4-(6-methoxy-5-phenoxypyridin-3-yl)-3,5-dimethylisoxazole] | 0.3 to 3 | 0.3 to 3 | 3 to 30 | 0.3 to 3 | – | –
8 | COc1cccc(Nc2cc(-c3c(C)noc3C)cnc2OC)c1 [Example 13, 5-(3,5-dimethylisoxazol-4-yl)-2-methoxy-N-(3-methoxyphenyl)pyridin-3-amine] | ≤ 0.3 | – | 0.3 to 3 | 0.3 to 3 | – | –
9 | COc1ncc(-c2c(C)noc2C)cc1NC(C)c1ccc(Cl)cc1 (stereo not shown) [Example 22, N-(1-(4-chlorophenyl)ethyl)-5-(3,5-dimethylisoxazol-4-yl)-2-methoxypyridin-3-amine] | 0.3 to 3 | 3 to 30 | 3 to 30 | – | – | –
10 | COc1ncc(-c2c(C)noc2C)cc1NCc1ncccc1Cl [Example 49, N-((3-chloropyridin-2-yl)methyl)-5-(3,5-dimethylisoxazol-4-yl)-2-methoxypyridin-3-amine] | ≤ 0.3 | – | – | – | – | Not Active

The next lines start with results.

Row | IC50 [1] [µM] | IC50 [2] [µM] | IC50 [3] [µM] | IC50 [4] [µM] | Structure (SMILES) | IL-6 activity ([4]; PMA-differentiated U937 cells) | Cell Proliferation activity [3]
11 | ≤ 0.3 | 0.3 to 3 | 3 to 30 | – | COc1ncc(-c2c(C)noc2C)cc1NCc1ccc(C#N)s1 [Example 50, 5-(((5-(3,5-dimethylisoxazol-4-yl)-2-methoxypyridin-3-yl)amino)methyl)thiophene-2-carbonitrile] | Not Active | –
12 | ≤ 0.3 | 0.3 to 3 | 0.3 to 3 | 0.3 to 3 | COc1ncc(-c2c(C)noc2C)cc1NC(C)c1ccc(F)cc1 (stereo not shown) [Example 12, 5-(3,5-dimethylisoxazol-4-yl)-N-(1-(4-fluorophenyl)ethyl)-2-methoxypyridin-3-amine] | – | –
13 | 3 to 30 | – | – | – | COc1ncc(-c2c(C)noc2C)cc1Oc1cccnc1 [Example 15, 4-(6-methoxy-5-(pyridin-3-yloxy)pyridin-3-yl)-3,5-dimethylisoxazole] | – | –
14 | ≤ 0.3 | 0.3 to 3 | 3 to 30 | 0.3 to 3 | COc1ncc(-c2c(C)noc2C)cc1Nc1cccc(F)c1 [Example 3, 5-(3,5-dimethylisoxazol-4-yl)-N-(3-fluorophenyl)-2-methoxypyridin-3-amine] | – | –
15 | 0.3 to 3 | – | – | – | CNc1ncc(-c2c(C)noc2C)cc1Nc1cccnc1C [Example 69, 5-(3,5-Dimethylisoxazol-4-yl)-N2-methyl-N3-(2-methylpyridin-3-yl)pyridine-2,3-diamine] | – | –
16 | ≤ 0.3 | 0.3 to 3 | 0.3 to 3 | 0.3 to 3 | CNc1ncc(-c2c(C)noc2C)cc1NCc1ccccn1 [Example 55, 5-(3,5-dimethylisoxazol-4-yl)-N2-methyl-N3-(pyridin-2-ylmethyl)pyridine-2,3-diamine] | – | –
17 | 0.3 to 3 | 0.3 to 3 | 3 to 30 | 0.3 to 3 | CNc1ncc(-c2c(C)noc2C)cc1Nc1cc(C#N)ccc1C [Example 64, 3-((5-(3,5-dimethylisoxazol-4-yl)-2-(methylamino)pyridin-3-yl)amino)-4-methylbenzonitrile] | – | –
18 | ≤ 0.3 | 3 to 30 | 0.3 to 3 | 0.3 to 3 | COc1ncc(-c2c(C)noc2C)cc1NCc1ccc(C#N)cc1F [Example 28, 4-(((5-(3,5-dimethylisoxazol-4-yl)-2-methoxypyridin-3-yl)amino)methyl)-3-fluorobenzonitrile] | – | –
19 | ≤ 0.3 | 3 to 30 | 3 to 30 | 0.3 to 3 | Cc1noc(C)c1-c1cnc(Oc2ccccc2)c(NCc2nccs2)c1 [Example 52, 5-(3,5-dimethylisoxazol-4-yl)-2-phenoxy-N-(thiazol-2-ylmethyl)pyridin-3-amine] | – | –
20 | 0.3 to 3 | – | 3 to 30 | – | Cc1noc(C)c1-c1cnc(OCc2ccccc2)c(NCc2ccccc2)c1 [Example 25, N-benzyl-2-(benzyloxy)-5-(3,5-dimethylisoxazol-4-yl)pyridin-3-amine] | – | –
21 | ≤ 0.3 | – | 3 to 30 | 0.3 to 3 | COc1ncc(-c2c(C)noc2C)cc1Nc1cccc(C)c1 [Example 7, 5-(3,5-dimethylisoxazol-4-yl)-2-methoxy-N-(m-tolyl)pyridin-3-amine] | – | –
22 | 0.3 to 3 | 3 to 30 | 3 to 30 | – | COc1ncc(-c2c(C)noc2C)cc1NCc1ccc(Br)cc1 [Example 23, N-(4-bromobenzyl)-5-(3,5-dimethylisoxazol-4-yl)-2-methoxypyridin-3-amine] | – | –
23 | ≤ 0.3 | – | 3 to 30 | 0.3 to 3 | COc1ncc(-c2c(C)noc2C)cc1NCc1ncccn1 [Example 48, 5-(3,5-dimethylisoxazol-4-yl)-2-methoxy-N-(pyrimidin-2-ylmethyl)pyridin-3-amine] | – | –
